Measurements from PMC12517401, “Design, synthesis, and antiproliferative activity of new 2-amino-pyrano[3,2-c]quinoline-3-carbonitriles as potential EGFR, BRAF^V600E, and HER-2 inhibitors” (RSC Advances, 2025).

Key:
[1] = Cell viability assay (MTT) on MCF-10A normal cell line; format: cell-based; settings: human, MCF-10A mammary gland epithelial normal cells, MCF-10A cells, 50 μM of each compound, four days of incubation
Description: The human mammary gland epithelial (MCF-10A) normal cell line was used to examine the viability effects of new derivatives 5a–l using the MTT test.[33,34] Refer to Appendix A for more details.
The human mammary gland epithelium (MCF-10A) normal cell line was employed to evaluate the viability effects of novel derivatives 5a–l. The cell viability of 5a–l was assessed via the MTT assay following four days of incubation with 50 μM of each compound on MCF-10A cells.[33,34] […]
4.2. Biological evaluation
4.2.1 Cell Viability assay (MTT assay)
MTT assay was performed to investigate the effect of the synthesized compounds on mammary epithelial cells (MCF-10A). The cells were propagated in medium consisting of Ham's F-12 medium/ Dulbecco's modified Eagle's medium (DMEM) (1:1) supplemented with 10% foetal calf serum, 2 mM glutamine, insulin (10 μg/mL), hydrocortisone (500 ng/mL) and epidermal growth factor (20 ng/mL). Trypsin ethylenediamine tetra acetic acid (EDTA) was used to passage the cells after every 2-3 days. 96-well flat-bottomed cell culture plates were used to seed the cells at a density of 10^4 cells mL-1. The medium was aspirated from all the wells of culture plates after 24 h followed by the addition of synthesized compounds (in 200 μL medium to yield a final concentration of 0.1% (v/v) dimethyl sulfoxide) into individual wells of the plates. Four wells were designated to a single compound. The plates were allowed to incubate at 37°C for 96 h. Afterwards, the medium was aspirated and 3-[4,5-dimethylthiazol-2-yl]-2,5-diphenyltetrazolium bromide (MTT) (0.4 mg/mL) in medium was added to each well and subsequently incubated for 3 h. The medium was aspirated and 150 μL dimethyl sulfoxide (DMSO) was added to each well. The plates were vortexed followed by the measurement of absorbance at 540 nm on a microplate reader. The results were presented as inhibition (%) of proliferation in contrast to controls comprising 0.1% DMSO. […]

lung cancer (A-549) = experiment: Antiproliferative assay, A-549; format: cell-based; settings: Homo sapiens, A549; A-549 lung cancer cell line; read-out: Antiproliferative activity IC50 ± SEM (nM) A-549
Description: (§1) 4.2.2. Assay for antiproliferative effect
(§2) To explore the antiproliferative potential of compounds propidium iodide fluorescence assay was performed using different cell lines such as Panc-1 (pancreas cancer cell line), MCF-7 (breast cancer cell line), HT-29 (colon cancer cell line) and A-549 (epithelial cancer cell line), respectively. To calculate the total nuclear DNA, a fluorescent dye (propidium iodide, PI) is used which can attach to the DNA, thus offering a quick and precise technique. PI cannot pass through the cell membrane and its signal intensity can be considered as directly proportional to quantity of cellular DNA. Cells whose cell membranes are damaged or have changed permeability are counted as dead ones. The assay was performed by seeding the cells of different cell lines at a density of 3000-7500 cells/well (in 200μl medium) in culture plates followed by incubation for 24h at 37 °C in humidified 5%CO2/95% air atmospheric conditions. The medium was removed; the compounds were added to the plates at 10 μM concentrations (in 0.1% DMSO) in triplicates, followed by incubation for 48h. DMSO (0.1%) was used as control. After incubation, medium was removed followed by the addition of PI (25 μl, 50μg/mL in water/medium) to each well of the plates. At -80 °C, the plates were allowed to freeze for 24 h, followed by thawing at 25 °C. A fluorometer (Polar-Star BMG Tech) was used to record the readings at excitation and emission wavelengths of 530 and 620 nm for each well. The percentage cytotoxicity of compounds was calculated using the following formula:
(§3) Where ATC= Absorbance of treated cells and AC= Absorbance of control. Erlotinib was used as positive control in the assay. […]
(1 picture or pasted object on this page, not shown here)

breast cancer (MCF-7) = experiment: Antiproliferative assay, MCF-7; format: cell-based, human; settings: for IC50: Homo sapiens, MCF7, MCF-7 breast cancer cell line, read-out: Antiproliferative activity IC50 ± SEM (nM) MCF-7
Description: as §1, §2, §3

[2] = system: pancreatic cancer (Panc-1); experiment: Antiproliferative assay, Panc-1; format: cell-based; settings: Homo sapiens; Panc-1 pancreatic cancer cell line; read-out: Antiproliferative activity IC50 ± SEM (nM) Panc-1
Description: as §1, §2, §3

colon cancer (HT-29) = experiment: Antiproliferative assay, HT-29; format: cell-based; settings: Homo sapiens; HT-29 colon cancer cell line; read-out: Antiproliferative activity IC50 ± SEM (nM) HT-29
Description: as §1, §2, §3

[3] = system: four human cancer cell lines (A-549, MCF-7, Panc-1, HT-29); experiment: Antiproliferative assay, average over four cancer cell lines (GI50); format: cell-based; settings: for GI50: Homo sapiens, GI50 = mean IC50 against the four cancer cell lines; for Times less efficient than 5a (GI50): ratio of GI50 versus 5a; for Potency reduction fold compared to 5h (GI50): ratio of GI50 versus 5h
Description: as §1
To explore the antiproliferative potential of compounds propidium iodide fluorescence assay was performed using different cell lines such as Panc-1 (pancreas cancer cell line), MCF-7 (breast cancer […]
calculate the total nuclear DNA, a fluorescent dye (propidium iodide, PI) is used which can attach to the DNA, thus offering a quick and precise technique. PI cannot pass through the cell membrane and its signal intensity can be considered as directly proportional to quantity of cellular DNA. Cells whose cell membranes are damaged or have changed permeability are counted as dead ones. The assay was performed by seeding the cells of different cell lines at a density of 3000-7500 cells/well (in 200μl […]
atmospheric conditions. The medium was removed; the compounds were added to the plates at 10 μM concentrations (in 0.1% DMSO) in triplicates, followed by incubation for 48h. DMSO (0.1%) was used as control. After incubation, medium was removed followed by the addition of PI (25 μl, 50μg/mL in water/medium) to each well of the plates. At -80 °C, the plates were allowed to freeze for 24 h, followed by thawing at 25 °C. A fluorometer (Polar-Star BMG Tech) was used to record the readings at excitation and emission wavelengths of 530 and 620 nm for each well. The percentage cytotoxicity of compounds was calculated using the following formula:
Where ATC= Absorbance of treated cells and AC= Absorbance of control. […]
positive control in the assay. […]

HER-2 = target: T1, HER-2 (Homo sapiens, UniProt P04626); experiment: HER-2 inhibitory assay (ADP-Glo kinase assay); format: biochemical; settings: read-out: HER-2 inhibition IC50 ± SEM
T1 construct: purchased Abcam ab60866
Description: The results are presented as IC50 values. Lapatinib served as the reference medication. Appendix A describes more experimental details.
Lapatinib functioned as the reference drug. […]
4.2.5. HER-2 inhibitory assay
The ADP-Glo™ Kinase Assay was used for kinase activity detection, related kinases information:
HER-2 (ab60866, Abcam), with a concentration of 100 ng/mL. Target compounds were dissolved in DMSO to obtain drug solutions with different concentrations, and the compound concentrations in the final reaction system (100 μL) were 1 nM, 20 nM, 40 nM, 80 nM, and 100 nM, respectively. 10μL of the solution containing compounds was transferred to a 96-well plate, then added 40 μL of 1 × kinase buffer (50 mM HEPES, pH 7.5) to each well, and mixed the mixture in the 96-well plate on a shaker for 10 min. Next, added 25 μL of ADP-Glo™ reagent to the above wells, mixed and incubated for another 40 min. Distributed 10 μL kinase detection reagent to the reaction and incubated for 30 min. Finally, the full-wavelength microplate reader was used to record the OD value.
4.3. Statistical analysis
Computerized Prism 5 program was used to statistically analyzed data using one-way ANOVA test followed by Tukey’s as post ANOVA for multiple comparison at P ≤.05. Data were presented as […]

EGFR = EGFR (Homo sapiens, UniProt P00533); experiment: EGFR-TK inhibitory assay
Description: Baculoviral expression vectors including pBlueBacHis2B and pFASTBacHTc were used separately
upstream to the EGFR sequence comprised a sequence that encoded (His)6. Sf-9 cells were infected for 72h for protein expression. The pellets of Sf-9 cells were solubilized in a buffer containing sodium vanadate (100 μM), aprotinin (10 μg/mL), triton (1%), HEPES buffer(50mM), ammonium molybdate (10 μM), benzamidine HCl (16 μg/mL), NaCl (10 mM),leupeptin (10 μg/mL) and pepstatin (10 μg/mL) at 0°C for 20 min at pH 7.4, followed by centrifugation for 20 min. To eliminate the nonspecifically bound material, a Ni-NTA super flow packed column was used to pass through and wash the crude extract supernatant first with 10mM and then with 100 mM imidazole. Histidine-linked proteins were first eluted with 250 and then with 500 mM imidazole subsequent to dialysis against NaCl (50 mM), HEPES (20 mM), glycerol (10%) and 1 μg/mL each of aprotinin, leupeptin and pepstatin for 120 min. The purification was performed either at 4 °C or on ice. To record autophosphorylation level, EGFR kinase assay was carried out on the basis of DELFIA/Time-Resolved Fluorometry. The compounds were first dissolved in DMSO absolute, subsequent to dilution to appropriate concentration using HEPES (25 mM) at pH 7.4. Each compound (10 μL) was incubated with recombinant enzyme (10 μL, 5 ng for EGFR, 1:80 dilution in 100 mM HEPES) for 10 min at 25 °C, subsequent to the addition of 5X buffer (10 μL, containing 2 mM MnCl2, 100 μM Na3VO4, 20 mM HEPES and 1 mM DTT) and ATP-MgCl2 (20 μL, containing 0.1 mM ATP and 50 mM MgCl2) and incubation for 1h. The negative and positive controls were included in each plate by the incubation of enzyme either with or without ATP-MgCl2. The liquid was removed after incubation and the plates were washed thrice using a wash buffer. The Europium-tagged antiphosphotyrosine antibody (75 μL, 400 ng) was added to each well followed by incubation of 1h
and then washing of the plates using buffer. The enhancement solution was added to each well and
autophosphorylation percentage inhibition by compounds was calculated using the following
calculated. The majority of signals detected by antiphosphotyrosine antibody were from EGFR because the enzyme preparation contained low impurities.

BRAF^V600E = BRAF^V600E (Mus musculus, UniProt P28028, V585E); experiment: BRAF^V600E inhibitory assay
Sequence of BRAF^V600E (P28028 whole entry V585E): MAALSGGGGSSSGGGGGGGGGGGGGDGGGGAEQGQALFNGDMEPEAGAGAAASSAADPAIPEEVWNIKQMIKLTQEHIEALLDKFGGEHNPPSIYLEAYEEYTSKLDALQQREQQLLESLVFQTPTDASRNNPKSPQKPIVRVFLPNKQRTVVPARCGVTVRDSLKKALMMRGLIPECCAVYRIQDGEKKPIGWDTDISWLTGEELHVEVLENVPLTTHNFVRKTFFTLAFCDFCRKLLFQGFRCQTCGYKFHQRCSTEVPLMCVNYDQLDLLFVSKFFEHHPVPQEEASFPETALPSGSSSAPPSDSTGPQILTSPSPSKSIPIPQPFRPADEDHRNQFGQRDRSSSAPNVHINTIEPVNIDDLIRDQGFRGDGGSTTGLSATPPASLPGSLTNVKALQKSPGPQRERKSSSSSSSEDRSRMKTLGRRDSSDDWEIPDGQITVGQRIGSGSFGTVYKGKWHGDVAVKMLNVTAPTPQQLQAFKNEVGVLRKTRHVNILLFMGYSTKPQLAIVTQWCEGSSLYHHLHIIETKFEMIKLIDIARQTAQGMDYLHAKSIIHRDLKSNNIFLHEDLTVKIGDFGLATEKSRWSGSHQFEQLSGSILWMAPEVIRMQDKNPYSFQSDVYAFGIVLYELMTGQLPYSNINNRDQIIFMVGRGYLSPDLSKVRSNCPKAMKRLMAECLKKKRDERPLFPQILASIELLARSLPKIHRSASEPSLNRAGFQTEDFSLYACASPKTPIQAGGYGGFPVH

Sequence of EGFR (P00533 669-1210): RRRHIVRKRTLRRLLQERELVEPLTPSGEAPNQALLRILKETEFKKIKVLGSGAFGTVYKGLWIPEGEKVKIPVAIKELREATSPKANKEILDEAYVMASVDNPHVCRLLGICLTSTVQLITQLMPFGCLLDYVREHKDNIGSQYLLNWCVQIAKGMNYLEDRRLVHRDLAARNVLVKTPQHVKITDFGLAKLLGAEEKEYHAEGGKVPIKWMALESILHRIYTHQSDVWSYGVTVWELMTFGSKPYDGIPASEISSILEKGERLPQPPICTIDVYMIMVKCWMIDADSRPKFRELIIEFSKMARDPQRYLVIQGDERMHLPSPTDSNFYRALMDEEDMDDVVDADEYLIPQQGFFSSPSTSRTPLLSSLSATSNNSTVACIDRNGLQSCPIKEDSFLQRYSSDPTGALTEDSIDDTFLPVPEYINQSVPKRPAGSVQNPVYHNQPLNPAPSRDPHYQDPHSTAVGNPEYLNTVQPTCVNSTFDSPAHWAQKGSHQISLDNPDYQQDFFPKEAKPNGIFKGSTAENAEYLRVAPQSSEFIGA
T1 sequence (P04626 23-1255): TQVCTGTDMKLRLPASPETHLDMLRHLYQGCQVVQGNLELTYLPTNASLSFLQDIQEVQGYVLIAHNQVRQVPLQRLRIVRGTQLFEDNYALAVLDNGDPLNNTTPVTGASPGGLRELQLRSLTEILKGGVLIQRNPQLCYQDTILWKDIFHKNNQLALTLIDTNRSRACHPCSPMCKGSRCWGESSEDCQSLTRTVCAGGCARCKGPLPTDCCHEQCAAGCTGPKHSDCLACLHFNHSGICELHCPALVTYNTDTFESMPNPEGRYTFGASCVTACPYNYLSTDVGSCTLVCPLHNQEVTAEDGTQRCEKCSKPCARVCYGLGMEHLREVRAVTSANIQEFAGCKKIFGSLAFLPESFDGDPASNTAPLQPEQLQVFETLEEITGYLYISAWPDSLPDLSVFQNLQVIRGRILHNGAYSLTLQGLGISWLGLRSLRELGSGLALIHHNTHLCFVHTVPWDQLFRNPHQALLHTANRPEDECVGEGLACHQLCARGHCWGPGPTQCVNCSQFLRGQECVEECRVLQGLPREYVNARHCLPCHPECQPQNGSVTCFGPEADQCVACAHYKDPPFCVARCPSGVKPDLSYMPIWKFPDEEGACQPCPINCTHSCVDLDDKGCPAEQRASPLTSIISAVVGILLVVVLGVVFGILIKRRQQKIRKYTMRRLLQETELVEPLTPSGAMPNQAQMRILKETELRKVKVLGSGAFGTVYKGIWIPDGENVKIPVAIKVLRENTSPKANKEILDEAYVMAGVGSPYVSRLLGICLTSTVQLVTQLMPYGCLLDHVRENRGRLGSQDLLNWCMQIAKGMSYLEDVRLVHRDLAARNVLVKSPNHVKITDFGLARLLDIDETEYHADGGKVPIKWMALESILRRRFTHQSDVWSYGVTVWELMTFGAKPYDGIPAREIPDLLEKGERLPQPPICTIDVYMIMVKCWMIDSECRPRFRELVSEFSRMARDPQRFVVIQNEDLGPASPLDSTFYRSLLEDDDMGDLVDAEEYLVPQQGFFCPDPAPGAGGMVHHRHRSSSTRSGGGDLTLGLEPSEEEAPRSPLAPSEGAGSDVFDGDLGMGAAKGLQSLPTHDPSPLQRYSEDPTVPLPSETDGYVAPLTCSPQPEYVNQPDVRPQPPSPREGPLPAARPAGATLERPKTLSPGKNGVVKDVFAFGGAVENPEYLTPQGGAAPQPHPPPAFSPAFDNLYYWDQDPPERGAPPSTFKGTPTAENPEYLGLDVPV

| Compound | IC50 (lung cancer (A-549)) [nM] | IC50 (breast cancer (MCF-7)) [nM] | IC50 [2] [nM] | IC50 (colon cancer (HT-29)) [nM] | GI50 [3] [nM] | IC50 (HER-2) [nM] | IC50 (EGFR) [nM] | Fold less potent than 5e, EGFR (EGFR; ratio of EGFR IC50 versus 5e) [fold] | IC50 (BRAF^V600E) [nM] | Times less efficient than 5a (GI50) [3] [fold] | Potency reduction fold compared to 5h (GI50) [3] [fold] | Times more effective than erlotinib (GI50) ([3]; ratio of GI50 versus erlotinib, four cancer cell lines) [fold] | Fold more potency than erlotinib, EGFR (EGFR; ratio of EGFR IC50 versus erlotinib) [fold] | viability at 4 days, 50 µM [1] [%] | Potency fold greater than erlotinib, MCF-7 (breast cancer (MCF-7); ratio of IC50 versus erlotinib, MCF-7) [fold] |
| --- | --- | --- | --- | --- | --- | --- | --- | --- | --- | --- | --- | --- | --- | --- | --- |
| Cc1ccc2[nH]c(=O)c3c(c2c1)OC(N)=C(C#N)C3c1ccccc1 (stereo not drawn) [Compound 5b, 2-Amino-9-methyl-5-oxo-4-phenyl-5,6-dihydro-4H-pyrano[3,2-c]quinoline-3-carbonitrile] | 48 ± 4 | 44 ± 4 | 48 ± 4 | 50 ± 5 | 48 | – | – | – | – | 1.5 | – | – | – | 90 | – |
| COc1ccc2[nH]c(=O)c3c(c2c1)OC(N)=C(C#N)C3c1ccccc1 (stereo not drawn) [Compound 5c, 2-Amino-9-methoxy-5-oxo-4-phenyl-5,6-dihydro-4H-pyrano[3,2-c]quinoline-3-carbonitrile] | 66 ± 6 | 59 ± 5 | 68 ± 6 | 70 ± 6 | 66 | – | – | – | – | 2.1 | 2.5 | – | – | 91 | – |
| COc1ccc(C2C(C#N)=C(N)Oc3c2c(=O)[nH]c2ccccc32)cc1 (stereo not drawn) [Compound 5f, 2-Amino-4-(4-methoxylphenyl)-5-oxo-5,6-dihydro-4H-pyrano[3,2-c]quinoline-3-carbonitrile] | 54 ± 4 | 50 ± 4 | 56 ± 5 | 56 ± 5 | 54 | – | – | – | – | – | – | – | – | 92 | – |
| COc1ccc(C2C(C#N)=C(N)Oc3c2c(=O)[nH]c2ccc(C)cc32)cc1 (stereo not drawn) [Compound 5g, 2-Amino-4-(4-methoxylphenyl)-9-methyl-5-oxo-5,6-dihydro-4H-pyrano[3,2-c]quinoline-3-carbonitrile] | 71 ± 6 | 67 ± 6 | 74 ± 6 | 74 ± 6 | 72 | – | – | – | – | – | 2.6 | – | – | 93 | – |
| N#CC1=C(N)Oc2c(c(=O)[nH]c3ccccc23)C1c1ccc(Cl)cc1 (stereo not drawn) [Compound 5j, 2-Amino-4-(4-chlorophenyl)-5-oxo-5,6-dihydro-4H-pyrano[3,2-c]quinoline-3-carbonitrile] | 43 ± 4 | 38 ± 3 | 44 ± 4 | 46 ± 4 | 43 | – | – | – | – | – | – | – | – | 91 | – |
| COc1ccc2[nH]c(=O)c3c(c2c1)OC(N)=C(C#N)C3c1ccc(Cl)cc1 (stereo not drawn) [Compound 5l, 2-Amino-9-methoxyl-4-(4-chlorophenyl)-5-oxo-5,6-dihydro-4H-pyrano[3,2-c]quinoline-3-carbonitrile] | 60 ± 5 | 56 ± 5 | 62 ± 5 | 63 ± 5 | 61 | – | – | – | – | – | 2.3 | – | – | 92 | – |

These reach a lower IC50 (lung cancer (A-549)). Values come first.

| IC50 (lung cancer (A-549)) [nM] | IC50 (breast cancer (MCF-7)) [nM] | IC50 [2] [nM] | IC50 (colon cancer (HT-29)) [nM] | GI50 [3] [nM] | IC50 (HER-2) [nM] | IC50 (EGFR) [nM] | Fold less potent than 5e, EGFR (EGFR; ratio of EGFR IC50 versus 5e) [fold] | IC50 (BRAF^V600E) [nM] | Times less efficient than 5a (GI50) [3] [fold] | Potency reduction fold compared to 5h (GI50) [3] [fold] | Times more effective than erlotinib (GI50) ([3]; ratio of GI50 versus erlotinib, four cancer cell lines) [fold] | Fold more potency than erlotinib, EGFR (EGFR; ratio of EGFR IC50 versus erlotinib) [fold] | Compound | viability at 4 days, 50 µM [1] [%] | Potency fold greater than erlotinib, MCF-7 (breast cancer (MCF-7); ratio of IC50 versus erlotinib, MCF-7) [fold] |
| --- | --- | --- | --- | --- | --- | --- | --- | --- | --- | --- | --- | --- | --- | --- | --- |
| 32 ± 2 | 27 ± 2 | 32 ± 2 | 32 ± 2 | 31 | 36 ± 2 | 84 ± 5 | 1.2 | 79 ± 5 | – | – | – | – | N#CC1=C(N)Oc2c(c(=O)[nH]c3ccccc23)C1c1ccccc1 (stereo not drawn) [Compound 5a, 2-Amino-5-oxo-4-phenyl-5,6-dihydro-4H-pyrano[3,2-c]quinoline-3-carbonitrile] | 92 | – |
| 35 ± 3 | 31 ± 2 | 36 ± 3 | 37 ± 3 | 35 | 39 ± 2 | 87 ± 5 | – | 83 ± 5 | – | – | – | – | Cc1ccc2c3c(c(=O)[nH]c2c1)C(c1ccccc1)C(C#N)=C(N)O3 (stereo not drawn) [Compound 5d, 2-Amino-8-methyl-5-oxo-4-phenyl-5,6-dihydro-4H-pyrano[3,2-c]quinoline-3-carbonitrile] | 93 | – |
| 26 ± 2 | 24 ± 2 | 28 ± 2 | 27 ± 2 | 26 | 21 ± 1 | 71 ± 4 | – | 62 ± 3 | – | – | 1.3 | 1.2 | Cn1c(=O)c2c(c3ccccc31)OC(N)=C(C#N)C2c1ccccc1 (stereo not drawn) [Compound 5e, 2-Amino-6-methyl-5-oxo-4-phenyl-5,6-dihydro-4H-pyrano[3,2-c]quinoline-3-carbonitrile] | 90 | 1.7 |
| 39 ± 3 | 34 ± 3 | 42 ± 3 | 42 ± 3 | 39 | – | – | – | – | – | – | – | – | Cc1ccc2[nH]c(=O)c3c(c2c1)OC(N)=C(C#N)C3c1ccc(Cl)cc1 (stereo not drawn) [Compound 5k, 2-Amino-9-methyl-4-(4-chlorophenyl)-5-oxo-5,6-dihydro-4H-pyrano[3,2-c]quinoline-3-carbonitrile] | 93 | – |
